Data from publication PMC9926234, “Iterative computational design and crystallographic screening identifies potent inhibitors targeting the Nsp3 macrodomain of SARS-CoV-2” (Proceedings of the National Academy of Sciences of the …, 2023).

The compounds below were run against SARS-CoV-2 NSP3 Mac1 (Severe acute respiratory syndrome coronavirus 2, UniProt P0DTD1). Conditions: DSF dose responsiveness, 1 µM nsp3 mac1; adj p given.
Type: binding
Design: contains a conserved macrodomain enzyme (Mac1)
Method: DSF and associated compound handling was performed as described ([12]), with 5 µM dye “Fluorescent Yellow” (Jacquard iDye Cat #JID1405) used in place of SYPRO Orange. Compounds were tested in triplicate, at seven concentrations in two-fold serial dilutions, at a top concentration of either 1,000 or 100 μM. To minimize experimental noise arising from plate location-based effects on Tma, all concentrations and replicates for each compound were tested within a single region of the microtiter plates, including a DMSO-only control from which ΔTmas were calculated for that compound. […] For each compound, to determine statistical significance of the dose responsive thermal shift, the Spearman’s coefficient was calculated between compound concentration and ΔTma.

Row | SMILES | Spearman est (compound concentration vs apparent Tm)
1 | O=C(Nc1nc2ccccc2c(=O)[nH]1)c1cccnc1 [Z1082933628] | 0.37
2 | O=C(NC(C(=O)O)c1c[nH]c2ccccc12)c1ncnc2[nH]ccc12 (stereo not shown) [Z4661819162] | −0.51
3 | CCOC(=O)C(NC(=O)c1c[nH]c2ncncc12)c1c[nH]c2ccccc12 (stereo not shown) [Z4661819167] | 0.82
4 | O=C1CSc2cc(C(=O)OC3c4ccccc4CC3F)ccc2N1 (stereo not shown) [Z4718398554] | −0.18
5 | Cc1nc(Cn2cnc3c(N)nc(N)nc32)cs1 [Z4718398569] | 0.06
6 | Nc1nc(N)c2ncn(Cc3csc(Cl)n3)c2n1 [Z4718398572] | 0.89
7 | Nc1nc(N)c2ncn(Cc3csc(C4CC4)n3)c2n1 [Z4718398585] | 0.75
8 | O=C(Nc1cccnc1)Nc1nc2ccccc2c(=O)[nH]1 [Z4718398593] | −0.56
9 | O=C(NCc1nc2ccccc2c(=O)[nH]1)Nc1cccnc1 [Z4718398598] | −0.41
10 | O=C(Nc1cccnc1)Nc1ccc2ccccc2n1 [Z4718398614] | −0.43
11 | COc1ccc(Cl)cc1Cn1cnc2c(N)ncnc21 [ZINC000110510953] | 0.55
12 | O=C1CCCN1CCSc1ncnc2[nH]cnc12 [ZINC000118179920] | 0.78
13 | CC1CN(C(=O)CCc2nc(-c3ccncc3)no2)C1c1ccccc1 (stereo not shown) [ZINC000173980856] | 0.61
14 | O=C(c1cccc(O)c1)N1CCC(Nc2ccccc2)C1 (stereo not shown) [ZINC000182324508] | 0.13
15 | Cc1cc(C(=O)C(C#N)c2nnc3n2CCCCC3)cc(O)n1 (stereo not shown) [ZINC000183202483] | −0.33
16 | Cc1ccc(-c2noc(C3CC(=O)N(c4cn[nH]c4)C3)n2)cc1 (stereo not shown) [ZINC000189176019] | −0.48
17 | Cc1oc(=O)oc1CSc1ncnc2[nH]cnc12 [ZINC000222377450] | 0.54
18 | c1ccc(-c2n[nH]c(Cc3noc([C@@H]4CCCO4)n3)n2)cc1 [ZINC000273900063] | −0.02
19 | OCc1cn(C2CCCN(c3ncnc4[nH]ccc34)C2)nn1 (stereo not shown) [ZINC000292637864] | 0.65
20 | O=C(c1cccc(O)c1)N1CC=C(c2ccccc2)C1 [ZINC000336444141] | 0.55
21 | Fc1ccc(F)c(Sc2ncnc3[nH]ccc23)c1 [ZINC000339235289] | 0.01
22 | Cc1nc(Cc2noc(Cc3ccc4[nH]ncc4c3)n2)no1 [ZINC000345855262] | −0.06
23 | COc1ccc(-c2nnc(NC(=O)Cc3ncccc3F)s2)cc1 [ZINC000350686468] | 0.17

Row | SMILES | Spearman est (compound concentration vs apparent Tm)
24 | Cc1oc(-c2cccs2)nc1Cc1nc(-c2cncnc2N)no1 [ZINC000350813789] | 0.74
25 | CC(C)c1noc(CCc2nc(-c3ccnc4[nH]ccc34)no2)n1 [ZINC000351161347] | −0.81
26 | c1ccc2c(c1)N(c1ncnc3[nH]ccc13)CC21CC1 [ZINC000352369310] | −0.82
27 | Cc1nc(S(=O)(=O)NCc2ccc(-c3ccncc3)cc2)cn1C [ZINC000352487041] | 0.73
28 | c1ccc2c(-c3noc(CCCc4nc(C5CC5)no4)n3)n[nH]c2c1 [ZINC000356759652] | 0.72
29 | Cc1ccc(-c2noc(CCCSC3CCCNC3=O)n2)cc1F (stereo not shown) [ZINC000359061121] | 0.71
30 | Cc1ccc(NS(=O)(=O)c2ccc(C(F)(F)F)cn2)c(O)n1 [ZINC000359659274] | 0.61
31 | Cc1n[nH]c2ncc(CN3CC(C)Oc4c(F)cccc43)cc12 (stereo not shown) [ZINC000361138637] | 0.07
32 | O=C(c1c(F)ccc(O)c1F)N1CCC(Oc2cccc(F)c2)C1 (stereo not shown) [ZINC000368135547] | −0.88
33 | Cc1ccc(C(=O)N2CC[C@H](Oc3ccccc3)C2)cc1O [ZINC000371562024] | −0.6
34 | COC(=O)CC1CN(c2ncnc3[nH]ccc23)c2ccccc21 (stereo not shown) [ZINC000371804911] | 0.77
35 | CC(C(=O)N1CCCC1c1nc(C(N)=O)no1)c1cccc(F)c1 (stereo not shown) [ZINC000373034135] | 0.29
36 | CN(c1cc(NC2CC2)ncn1)C1CCCN(c2cccnn2)C1 (stereo not shown) [ZINC000413143167] | −0.41
37 | CN(Cc1cccc(O)c1)C(=O)Cc1ccncc1 [ZINC000542791186] | 0.23
38 | NC(=O)c1ccc(Cc2noc(CCc3ccoc3)n2)cc1 [ZINC000546336511] | −0.79
39 | Nc1ncnc2c1ncn2CCCc1ccsc1 [ZINC000570815972] | 0.79
40 | CC1c2ccc(F)cc2CCN1C(=O)c1cccc(O)c1 (stereo not shown) [ZINC000679635167] | −0.95
41 | O=C(Cc1ccc2c(c1)CCO2)OCc1cc2ccccc2[nH]c1=O [ZINC000733430132] | −0.12
42 | Cc1cc(-n2cncn2)ccc1C(=O)OCC1OCCc2ccccc21 (stereo not shown) [ZINC000745413896] | 0.55
43 | CCc1noc(C(C)OC(=O)c2cccc3[nH]c(=O)oc23)n1 (stereo not shown) [ZINC000751938095] | −0.41
44 | Cc1ccc(CC(=O)OCc2noc(C3CC3)n2)cc1O [ZINC000772152995] | 0.02
45 | O=C(COC(=O)c1ccc2nsnc2c1)c1ccccc1 [ZINC000779122380] | 0.81
46 | N#Cc1cccc(-n2ccc(C(=O)OCc3cccnc3)n2)c1 [ZINC000798346395] | 0.61

Row | SMILES | Spearman est (compound concentration vs apparent Tm)
47 | Nc1cc(-c2noc(CCn3cccn3)n2)ncn1 [ZINC000820965086] | 0.58
48 | O=C(Cc1ccc(-n2cccn2)cc1)OCC1CCCNC1=O (stereo not shown) [ZINC000835985505] | −0.14
49 | CS(=O)(=O)C1CCCN(c2ncnc3[nH]c(Cl)cc23)C1 (stereo not shown) [ZINC000865679550] | 0.71
50 | Clc1cc2c(N3CCCC(c4cccnc4)C3)ncnc2[nH]1 (stereo not shown) [ZINC000866018680] | 0.2
51 | CC1CCc2n[nH]cc2C1C(=O)N(C)OCc1ccccc1 (stereo not shown) [ZINC000879258074] | 0.45
52 | Cc1csc(=Nc2ccccc2)n1Cc1nnc2n1CCNC2=O [ZINC000881775356] | 0.59
53 | CN(Cc1nnc2c(=O)[nH]ccn12)c1nccc(C(F)(F)F)n1 [ZINC000882897665] | 0.38
54 | CN(Cc1nnc2c(=O)[nH]ccn12)c1cc(Cl)nc(C2CC2)n1 [ZINC000882897766] | −0.19
55 | CC1C(=O)CCCN1C(=O)c1ccnc2[nH]cnc12 (stereo not shown) [ZINC000885048835] | 0.23
56 | CNc1cc(N2CCCC(c3nc(C)no3)C2)ncn1 (stereo not shown) [ZINC000891943247] | 0.24
57 | Cc1ccccc1CC(C)c1nc(-c2cc(N)ncn2)no1 (stereo not shown) [ZINC000896334066] | 0.77
58 | c1csc(CC2CCN(c3ncnc4[nH]ccc34)C2)n1 (stereo not shown) [ZINC000897286891] | −0.05
59 | CNc1cc(-c2noc(CN3CCCC3=O)n2)ncn1 [ZINC000904236028] | −0.56
60 | Cc1nc(Cc2noc(-c3ncnc4[nH]ccc34)n2)no1 [ZINC000904346960] | 0.21
61 | CC(c1ccc(Cl)c(Cl)c1)S(=O)(=O)Cc1cn[nH]c1 (stereo not shown) [ZINC000905245728] | −0.2
62 | CN(C(=O)CN1CCNC(=O)C1)c1ccc(-c2nccs2)cc1 [ZINC000910053700] | −0.73
63 | Cc1nc2c(C(=O)OCc3ccnc(N(C)C)c3)ccnc2[nH]1 [ZINC000924094620] | 0.62
64 | Cn1cnc(C(=O)NCC2CCN2C(=O)c2ncnc3[nH]ccc23)c1 (stereo not shown) [ZINC000949397098] | 0.3
65 | CN1C(=O)[C@H]2CN(C(=O)c3ncnc4[nH]ccc34)C[C@H]2C1=O [ZINC001119059028] | −0.58
66 | Nc1nc(N)c2ncn(C3CN(C(=O)Cc4cccnc4)C3)c2n1 [ZINC001156036512] | 0.06
67 | NC(=O)c1ccc(CCSc2cccc(F)c2)cc1 [ZINC001165768885] | −0.73
68 | Cc1ccccc1CNc1ncnc(-c2ccccc2)n1 [ZINC001184571635] | 0.82

Same assay, conditions: maximal thermal upshift

Row | SMILES | DSF max dTma
69 | Cc1cc(C(=O)C(C#N)c2nnc3n2CCCCC3)cc(O)n1 (stereo not shown) [ZINC000183202483] | 0 ˚C
70 | c1ccc(-c2n[nH]c(Cc3noc([C@@H]4CCCO4)n3)n2)cc1 [ZINC000273900063] | 0.03 ˚C
71 | Cc1ccc(NS(=O)(=O)c2ccc(C(F)(F)F)cn2)c(O)n1 [ZINC000359659274] | 0.65 ˚C
72 | CCc1noc(C(C)OC(=O)c2cccc3[nH]c(=O)oc23)n1 (stereo not shown) [ZINC000751938095] | 0.13 ˚C
73 | CC1C(=O)CCCN1C(=O)c1ccnc2[nH]cnc12 (stereo not shown) [ZINC000885048835] | 0.16 ˚C
74 | CNc1cc(N2CCCC(c3nc(C)no3)C2)ncn1 (stereo not shown) [ZINC000891943247] | 0.27 ˚C
75 | Cc1nc(Cc2noc(-c3ncnc4[nH]ccc34)n2)no1 [ZINC000904346960] | 0.27 ˚C
76 | Cn1cnc(C(=O)NCC2CCN2C(=O)c2ncnc3[nH]ccc23)c1 (stereo not shown) [ZINC000949397098] | 0.1 ˚C
77 | CN1C(=O)[C@H]2CN(C(=O)c3ncnc4[nH]ccc34)C[C@H]2C1=O [ZINC001119059028] | 0 ˚C
78 | Nc1nc(N)c2ncn(C3CN(C(=O)Cc4cccnc4)C3)c2n1 [ZINC001156036512] | 0.61 ˚C

Same assay, conditions: maximal thermal upshift vs DMSO control

Row | SMILES | DSF max dTma [°C]
79 | NC(=O)c1ccc(CCSc2cccc(F)c2)cc1 [Z8885] | 0.09
80 | c1ccc2c(c1)N(c1ncnc3[nH]ccc13)CC21CC1 [Z9310] | 0
81 | CS(=O)(=O)C1CCCN(c2ncnc3[nH]c(Cl)cc23)C1 (stereo not shown) [Z9550] | 0.64
82 | c1ccc2c(-c3noc(CCCc4nc(C5CC5)no4)n3)n[nH]c2c1 [Z9652] | 0.72
